PubChem BioAssay (NCI)
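These data come from cells grown in 96-well plates and exposed to compound for 48 hours at five concentrations. Abbreviation: GI50, concentration required for 50% inhibition of growth. The concentration for full growth arrest is given as TGI.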

Legend:
Test in all cases: inhibition of tumour cell growth, NCI panel, 48 h
786-0 renal = system: 786-0 renal
A498 renal = system: A498 renal
A549 NSCLC = system: A549 NSCLC
ACHN renal = system: ACHN renal
BT-549 breast = system: BT-549 breast
CAKI-1 renal = system: CAKI-1 renal
CCRF-CEM leukemia = system: CCRF-CEM leukemia
COLO 205 colon = system: COLO 205 colon
DU-145 prostate = system: DU-145 prostate
EKVX NSCLC = system: EKVX NSCLC
HCC-2998 colon = system: HCC-2998 colon
HCT-116 colon = system: HCT-116 colon
HCT-15 colon = system: HCT-15 colon
HL-60(TB) leukemia = system: HL-60(TB) leukemia
HOP-62 NSCLC = system: HOP-62 NSCLC
HOP-92 NSCLC = system: HOP-92 NSCLC
HS 578T breast = system: HS 578T breast
HT29 colon = system: HT29 colon
IGROV1 ovarian = system: IGROV1 ovarian
K-562 leukemia = system: K-562 leukemia
KM12 colon = system: KM12 colon
LOX IMVI melanoma = system: LOX IMVI melanoma
M14 melanoma = system: M14 melanoma
MALME-3M melanoma = system: MALME-3M melanoma
MCF7 breast = system: MCF7 breast
MDA-MB-231 breast = system: MDA-MB-231 breast
MDA-MB-435 = system: MDA-MB-435
MOLT-4 leukemia = system: MOLT-4 leukemia
NCI-H226 lung = system: NCI-H226 lung
NCI-H460 lung = system: NCI-H460 lung
NCI-H522 lung = system: NCI-H522 lung
NCI/ADR-RES ovarian = system: NCI/ADR-RES ovarian
OVCAR-4 ovarian = system: OVCAR-4 ovarian
OVCAR-5 ovarian = system: OVCAR-5 ovarian
OVCAR-8 ovarian = system: OVCAR-8 ovarian
PC-3 prostate = system: PC-3 prostate
RPMI-8226 leukemia = system: RPMI-8226 leukemia
RXF 393 renal = system: RXF 393 renal
SF-268 CNS = system: SF-268 CNS
SF-295 CNS = system: SF-295 CNS
SF-539 CNS = system: SF-539 CNS
SK-MEL-2 melanoma = system: SK-MEL-2 melanoma
SK-MEL-28 melanoma = system: SK-MEL-28 melanoma
SK-MEL-5 melanoma = system: SK-MEL-5 melanoma
SK-OV-3 ovarian = system: SK-OV-3 ovarian
SN12C renal = system: SN12C renal
SNB-19 CNS = system: SNB-19 CNS
SNB-75 CNS = system: SNB-75 CNS
SR leukemia = system: SR leukemia
SW-620 colon = system: SW-620 colon
T-47D breast = system: T-47D breast
TK-10 renal = system: TK-10 renal
U251 CNS = system: U251 CNS
UACC-257 melanoma = system: UACC-257 melanoma
UACC-62 melanoma = system: UACC-62 melanoma
UO-31 renal = system: UO-31 renal

SMILES: c1n[nH]cc1-c1nc2ccc3[nH]ncc3c2c2c1CCCC2
- GI50 (786-0 renal): 1410 nM
- TGI (786-0 renal): 2720 nM
- GI50 (A498 renal): 405 nM
- TGI (A498 renal): 1920 nM
- GI50 (A549 NSCLC): 2010 nM
- TGI (A549 NSCLC): 12300 nM
- GI50 (ACHN renal): 560 nM
- TGI (ACHN renal): 10300 nM
- GI50 (BT-549 breast): 1220 nM
- TGI (BT-549 breast): 2490 nM
- GI50 (CAKI-1 renal): 511 nM
- TGI (CAKI-1 renal): 10400 nM
- GI50 (CCRF-CEM leukemia): 2420 nM
- TGI (CCRF-CEM leukemia): > 100000 nM
- GI50 (COLO 205 colon): 1310 nM
- TGI (COLO 205 colon): 4470 nM
- GI50 (DU-145 prostate): 1710 nM
- TGI (DU-145 prostate): 11600 nM
- GI50 (EKVX NSCLC): 887 nM
- TGI (EKVX NSCLC): 3330 nM
- GI50 (HCC-2998 colon): 1640 nM
- TGI (HCC-2998 colon): 7310 nM
- GI50 (HCT-116 colon): 635 nM
- TGI (HCT-116 colon): 7920 nM
- GI50 (HCT-15 colon): 1380 nM
- TGI (HCT-15 colon): 14000 nM
- GI50 (HL-60(TB) leukemia): 1490 nM
- TGI (HL-60(TB) leukemia): 5590 nM
- GI50 (HOP-62 NSCLC): 1750 nM
- TGI (HOP-62 NSCLC): 7680 nM
- GI50 (HOP-92 NSCLC): 2240 nM
- TGI (HOP-92 NSCLC): 6310 nM
- GI50 (HS 578T breast): 914 nM
- TGI (HS 578T breast): 4020 nM
- GI50 (HT29 colon): 1670 nM
- TGI (HT29 colon): 10900 nM
- GI50 (IGROV1 ovarian): 1350 nM
- TGI (IGROV1 ovarian): 8150 nM
- GI50 (K-562 leukemia): 3010 nM
- TGI (K-562 leukemia): > 100000 nM
- GI50 (KM12 colon): 2910 nM
- TGI (KM12 colon): 8900 nM
- GI50 (LOX IMVI melanoma): 1150 nM
- TGI (LOX IMVI melanoma): 2910 nM
- GI50 (M14 melanoma): 1110 nM
- TGI (M14 melanoma): 3360 nM
- GI50 (MALME-3M melanoma): 1560 nM
- TGI (MALME-3M melanoma): 4760 nM
- GI50 (MCF7 breast): 2420 nM
- TGI (MCF7 breast): 11700 nM
- GI50 (MDA-MB-231 breast): 1960 nM
- TGI (MDA-MB-231 breast): 12000 nM
- GI50 (MDA-MB-435): 1400 nM
- TGI (MDA-MB-435): 4380 nM
- GI50 (MOLT-4 leukemia): 1990 nM
- TGI (MOLT-4 leukemia): 7880 nM
- GI50 (NCI-H226 lung): 1280 nM
- TGI (NCI-H226 lung): 3650 nM
- GI50 (NCI-H460 lung): 783 nM
- TGI (NCI-H460 lung): 4850 nM
- GI50 (NCI-H522 lung): 835 nM
- TGI (NCI-H522 lung): 2770 nM
- GI50 (NCI/ADR-RES ovarian): 2100 nM
- TGI (NCI/ADR-RES ovarian): 6050 nM
- GI50 (OVCAR-4 ovarian): 2350 nM
- TGI (OVCAR-4 ovarian): 7930 nM
- GI50 (OVCAR-5 ovarian): 2710 nM
- TGI (OVCAR-5 ovarian): 17900 nM
- GI50 (OVCAR-8 ovarian): 1640 nM
- TGI (OVCAR-8 ovarian): 4380 nM
- GI50 (PC-3 prostate): 2370 nM
- TGI (PC-3 prostate): 11600 nM
- GI50 (RPMI-8226 leukemia): 1510 nM
- TGI (RPMI-8226 leukemia): 4940 nM
- GI50 (RXF 393 renal): 1170 nM
- TGI (RXF 393 renal): 2770 nM
- GI50 (SF-268 CNS): 1950 nM
- TGI (SF-268 CNS): 4630 nM
- GI50 (SF-295 CNS): 2110 nM
- TGI (SF-295 CNS): 8490 nM
- GI50 (SF-539 CNS): 1380 nM
- TGI (SF-539 CNS): 3090 nM
- GI50 (SK-MEL-2 melanoma): 1260 nM
- TGI (SK-MEL-2 melanoma): 3120 nM
- GI50 (SK-MEL-28 melanoma): 1590 nM
- TGI (SK-MEL-28 melanoma): 4510 nM
- GI50 (SK-MEL-5 melanoma): 1280 nM
- TGI (SK-MEL-5 melanoma): 3220 nM
- GI50 (SK-OV-3 ovarian): 680 nM
- TGI (SK-OV-3 ovarian): 11600 nM
- GI50 (SN12C renal): 1840 nM
- TGI (SN12C renal): 7540 nM
- GI50 (SNB-19 CNS): 2780 nM
- TGI (SNB-19 CNS): 9850 nM
- GI50 (SNB-75 CNS): 1310 nM
- TGI (SNB-75 CNS): 2880 nM
- GI50 (SR leukemia): 287 nM
- TGI (SR leukemia): 5450 nM
- GI50 (SW-620 colon): 924 nM
- TGI (SW-620 colon): 6540 nM
- GI50 (T-47D breast): 2210 nM
- TGI (T-47D breast): 8180 nM
- GI50 (TK-10 renal): 766 nM
- TGI (TK-10 renal): 8200 nM
- GI50 (U251 CNS): 2060 nM
- TGI (U251 CNS): 12100 nM
- GI50 (UACC-257 melanoma): 1860 nM
- TGI (UACC-257 melanoma): 6640 nM
- GI50 (UACC-62 melanoma): 1060 nM
- TGI (UACC-62 melanoma): 3250 nM
- GI50 (UO-31 renal): 1540 nM
- TGI (UO-31 renal): 7650 nM
